According to the METLIN SMRT retention time set (Domingo-Almenara et al. 2019):

Assay: gradient 5% acetonitrile 3 min, to 50% in 2 min, to 85% in 15 min, held 3 min, 100 µL/min
Conditions: column: Zorbax Extend-C18 2.1 x 50 mm; eluents: water / acetonitrile, 0.1% formic acid
Method in brief: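 Retention times of pure standards were taken from adduct peaks that were selected by computer and manually inspected. Over 3 months, mixtures of ~100 molecules were run by HPLC–quadrupole time-of-flight mass spectrometry in positive and negative ionization mode. The Zorbax Extend-C18 column (2.1 × 50 mm, 1.8 μm) ran at 100 μL/min in water and acetonitrile, each containing 0.1% formic acid, with 40 μL dead volume and 900 μL dwell volume.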

SMILES	RP-LC retention time
CCN1c2cc(Cl)ccc2C(=O)NC12CCN(C(=O)Nc1ccc(OC)cc1C)CC2	841 s
Cc1ccc(CCNC(=O)CN2C(=O)CSc3cccn3-c3ccccc32)cc1	965 s
Cc1nnc(-c2cccn2CC(=O)NCc2cccc(Br)c2)o1	767 s
O=C(NCCc1ccc(F)cc1)C1CC(=O)N(CCc2c[nH]c3ccc(Cl)cc23)C1 (stereo not drawn)	830 s
Cc1noc(-c2nc(Cc3cccc(F)c3)no2)n1	940 s
Cc1ccc(CNC(=O)C2=C3CCCN3c3ccc(F)cc3S2(=O)=O)cc1	909 s
COc1ccc(NC(=O)c2noc3c2CCCCC3)c(OC)c1	1080 s
Cc1[nH]c(C(=O)N2CCC(CC(=O)N3CCN(c4ccccn4)CC3)CC2)c(C)c1C(=O)OC(C)C	628 s
CCOC(=O)C1CCN(c2nc(=O)[nH]c3ccccc23)CC1	646 s
CCSc1ccccc1C(=O)Nc1nnc(Cc2cccs2)o1	764 s
O=C(CN1C(=O)C2CCCCN2c2ccc(C(=O)N3CCCC3)cc21)Nc1ccncc1 (stereo not drawn)	622 s
Cc1nc(Cn2cccc2C(=O)Nc2cccc(Cl)c2)no1	911 s
Cc1ccc(-c2ccc(-n3nc(C)c(S(=O)(=O)NCc4ccc5c(c4)OCO5)c3C)nn2)cc1	1020 s
CCCCN1C(=O)C(C)(C(=O)NCc2ccc(C)cc2)Oc2cccnc21 (stereo not drawn)	1040 s
CCc1ccc(C(=O)NCCc2nc3cccnc3n2CC)cc1	694 s
NC1=NC(c2ccc(Cl)cc2)N(c2ccc(S(N)(=O)=O)cc2)C(N)=N1 (stereo not drawn)	629 s
Cc1ccccc1Cc1nc(-c2cccc(-c3ccn[nH]3)c2)no1	985 s
C=CCn1c(=O)c2ccccc2n(Cc2nc(-c3ccc(OC)cc3)no2)c1=O	1020 s
CSc1ccc(-c2nc3cnccn3c2Nc2ccc(C(=O)O)cc2)cc1	719 s
Nc1cc(C2CCN(C(=O)Nc3cccc(Cl)c3)CC2)no1	727 s
CCOc1ccc(NC(=O)Nc2nccn(-c3ccc(C(C)C)cc3)c2=O)cc1	1160 s

SMILES	RP-LC retention time
COc1ccc(C(=O)Nc2ccc(-c3cn4ccc(C)nc4n3)cc2)cc1	632 s
CCCCS(=O)(=O)N1CCCC(c2nnc(-c3ccc4c(c3)OCO4)o2)C1 (stereo not drawn)	819 s
O=C(CN1C(=O)C2CCCCN2C(=O)c2ccccc21)Nc1ccc(C(F)(F)F)cc1 (stereo not drawn)	890 s
O=C(NC1CCCC1)c1cc2sccc2n1Cc1ccc(F)cc1	1080 s
CC(C)c1ccc(NC(=O)C2CCCN(c3ccc(=O)n(-c4cccc(Cl)c4)n3)C2)cc1 (stereo not drawn)	1120 s
CCCn1nc(C)cc1CN(C)C(=O)Cn1nc2n(c1=O)CCC(N)CC2 (stereo not drawn)	561 s
O=C(Nc1cccc(F)c1)[C@@H]1OCC(=O)N(C2CC2)[C@H]1c1ccccc1	849 s
CCC1CN2C=Nc3oc(C)c(C(=O)Nc4cccc(Cl)c4C)c3C2=N1 (stereo not drawn)	687 s
COCCCNC(=O)C(C)n1nc(C)c2c(C)n(-c3ccccc3)nc2c1=O (stereo not drawn)	686 s
COc1ccc2nc(C(=O)NCc3ccccc3Br)cn2n1	891 s
CC(C)(C)C(=O)N1C[C@@H](CO)[C@H](c2nc(-c3ccncc3)no2)C1	631 s
CCOc1ccc(-c2csc3c(=O)n(Cc4ccc(N5CCCC5=O)cc4)cnc23)cc1OCC	929 s
Cc1cccc2nnc(N3CCCC(C(=O)N4CCN(c5ccccc5)CC4)C3)n12 (stereo not drawn)	614 s
COCCc1noc(-c2cnc3nc(C)ccc3c2NCc2cccc(Cl)c2)n1	711 s
COc1cc(-c2noc(CN3C(=O)COc4ccc(C)cc43)n2)cc(OC)c1OC	985 s
Cc1cnc(-c2ccccc2)n1CCNS(=O)(=O)c1ccc(C#N)cc1	634 s
CCCCn1c(=O)c2ccccc2n(Cc2nc(-c3ccccc3Br)no2)c1=O	1170 s
CC1=C(c2ccc(F)cc2)S(=O)(=O)N=C1N1CCC(NC(=O)C2CCOC2)CC1 (stereo not drawn)	664 s
CCc1noc(-c2cnc3nc(C)ccc3c2Nc2ccccc2OC)n1	629 s
CCN(CC)C(=O)CSc1nnc(-c2ccc3c(c2)OCCCO3)n1C	691 s
O=C(NCCC(c1ccccc1)c1ccccc1)c1cnc2sccn2c1=O	847 s

SMILES	RP-LC retention time
COc1ccc(-c2cn3c(CC(=O)N4CCN(c5ccccc5)CC4)csc3n2)cc1OC	730 s
Cc1c(C(=O)C(=O)N2CCc3ccccc3C2)c2ccccc2n1C	913 s
O=C(Nc1ccc(Cl)cc1)N1CCCC(c2nnc(Cc3ccc(F)cc3)o2)C1 (stereo not drawn)	877 s
Cc1ccccc1S(=O)(=O)N1CCC(CCC(=O)N2CCc3ccccc3C2)CC1	1060 s
Cc1ccc(-c2noc(C3CCCN3C(=O)c3ccc(CS(=O)(=O)c4ccccc4)cc3)n2)cc1 (stereo not drawn)	1010 s
O=C(Cc1c[nH]c2ccccc12)N1CCCN(C2CCN(CC3CC3)C2=O)CC1 (stereo not drawn)	610 s
Cc1cc(C)c(C)c(S(=O)(=O)NC2CCN(c3ccc(=O)n(CC4CC4)n3)CC2)c1C	1040 s
COC(=O)c1cccc(NC(=O)c2cnc(-c3ccc(F)cc3)nc2-c2ccncc2)c1	912 s
CCN1CCCc2cc(C(=O)N3CCC4(CC3)OCCO4)sc21	603 s
COCCCNC(=O)N1CCN(Cc2nc3cccnc3n2-c2cc(C)cc(C)c2)CC1	650 s
CCN1C(=O)NC(c2ccccc2C(F)(F)F)C2=C1CN(CCC(=O)NCCOC)C2=O (stereo not drawn)	928 s
CCN1CCCC(Cn2cc(COc3ccc4c(c3)CCC4)nn2)C1 (stereo not drawn)	679 s
O=C(NCC1CCCO1)c1cc(=O)n(Cc2ccc(Cl)cc2)c2ccccc12 (stereo not drawn)	815 s
COc1ccc(C2CC(=O)N(c3ccccc3)C(=O)C2)cc1	842 s
COC(=O)c1cc2c(=O)n(-c3cc(Cl)cc(Cl)c3)ccc2nc1C	1010 s
COc1ccc(OC)c(NC(=O)N2CCC(CN3CCC(C)CC3)CC2)c1	626 s
COC1=CC(=O)OC(/C=C/c2ccccc2)C1 (stereo not drawn)	883 s
O=S(=O)(Nc1ccc(Cn2cncn2)cc1)c1ccccc1F	688 s
Cc1ccc(S(=O)(=O)Nc2ccc(-c3cn4ccc(C)nc4n3)cc2)cc1	646 s

Next, values leading:

RP-LC retention time	SMILES
806 s	CC(C)c1ccc(Nc2c(-c3ccc(N4CCOCC4)cc3)nc3ncccn23)cc1
1090 s	O=S(=O)(Cc1ccc(Cl)cc1)N1CCc2nc(-c3ccccc3)ncc2C1
1330 s	CC(C)(C)c1ccc(-c2noc(Cn3c(=O)n(Cc4ccccc4)c(=O)c4sccc43)n2)cc1
996 s	COc1ccc(-c2nc(C3CC(=O)N(c4ccc(Cl)cc4)C3)no2)c(OC)c1 (stereo not drawn)
893 s	CCc1ccccc1N1C(=O)CN(S(C)(=O)=O)CC1(C)C(=O)NCc1ccc(Cl)cc1 (stereo not drawn)
917 s	CC(=O)N1c2ccc(S(=O)(=O)N3CCCCC3)cc2CC1C(=O)NCCCc1ccccc1 (stereo not drawn)
756 s	O=C([C@@H]1C[C@H](Oc2ccccc2)CN1C(=O)c1ccsc1)N1CCCC1
818 s	COc1ccc(Cn2cc(S(=O)(=O)N3CCCCCC3)ccc2=O)cc1
747 s	CCc1ccc(C(=O)Nc2cc3c(cc2S(=O)(=O)C(C)C)n(C)c(=O)n3C)cc1
978 s	O=C(Nc1ccccn1)C1CCCN(S(=O)(=O)c2cc(-c3noc(C4CCC4)n3)cs2)C1 (stereo not drawn)
793 s	O=C(NCc1cccc(F)c1)C1CCN(c2cnc(N3CCSCC3)nc2)CC1
856 s	COc1ccc(NC(=O)N2CCC3(CC2)N=C(c2cccc(Cl)c2)C(=O)N3)c(OC)c1
980 s	CCOc1ccc(/C=C/C(=O)Nc2nc(-c3ccc4c(c3)NC(=O)C(C)O4)c(C)s2)cc1OC (stereo not drawn)
812 s	CCn1cc(CCNC(=O)Nc2ccc(C)cc2Cl)c2cccnc21
1210 s	COc1ccc(-n2/c(=N/C(=S)N(C)C)ss/c2=N\C(=S)N(C)C)cc1
997 s	Cc1c(Cl)cccc1Nc1c(-c2ccccc2)nc2cnccn12
590 s	C(=C\c1ccccn1)/c1ccccn1
837 s	Cc1cc(C)cc(NC(=O)Cn2c(=O)c3cc(C4CC4)nn3c3ncccc32)c1
552 s	CCOC(=O)C(=O)NCC1CCC(c2nc3ccccc3n2C)CC1 (stereo not drawn)
1060 s	O=c1c2oc3ccccc3c2ncn1Cc1nc(-c2cccc(Br)c2)no1
1100 s	Cc1ccc(C)c(CNS(=O)(=O)c2cc(-c3csc(C)n3)sc2C)c1
880 s	COc1cc(NC(=O)c2ccc3cccc(O)c3n2)cc(OC)c1OC
1060 s	CC(C)(C)c1noc(-c2ccc(-n3cnc(C(=O)NCc4ccccc4)c3)nc2)n1
619 s	CN(C)C(=O)c1ccc2c(c1)N(CC(=O)NCCCN1CCCC1=O)C(=O)C1CCCCN21 (stereo not drawn)
848 s	CCOc1cc(=O)n2c(c1C(=O)Nc1ccc(Br)c(C)c1)CCCC2
1050 s	CCc1nc2cc(-c3noc(Cc4cccc(F)c4)n3)ccc2o1
850 s	CCCOc1ccc(CNC(=O)C2CCc3nc(N4CCCCC4)ncc3C2)cc1 (stereo not drawn)
